In patent US8309558B2, “Compounds for the treatment of hepatitis C” (Bristol-Myers Squibb Company, priority 2008, dated 2012):
pEC50, pIC50: −log10 of the molar value. Like-named read-outs stand apart in the source and are kept apart here.

Experiments:
HCV replicon cells = experiment: HCV replicon FRET / luciferase assay (96-well plates); assay type: cell-based; settings: Hepatitis C virus, HCV replicon, read-out: EC50
Description: FRET Assay Preparation. To perform the HCV FRET screening assay, 96-well cell culture plates were used. The FRET peptide (Anaspec, Inc.) (Taliani et al., Anal. Biochem. 1996, 240, 60-67) contains a fluorescence donor, EDANS, near one end of the peptide and an acceptor, DABCYL, near the other end. The fluorescence of the peptide is quenched by […] resonance energy transfer (RET) between the donor and the acceptor, but as the NS3 protease cleaves the peptide the products are released from RET quenching and the fluorescence of the donor becomes apparent. The assay reagent was made as follows: 5× cell Luciferase cell culture lysis reagent from Promega (#E153A) diluted to 1× with dH2O, NaCl added to 150 mM final, the FRET peptide diluted to 20 μM final from a 2 mM stock.
To prepare plates, HCV replicon cells, with or without a Renilla luciferase reporter gene, were trypsinized and placed into each well of a 96-well plate with titrated test compounds added in columns 3 through 12; columns 1 and 2 contained a control compound (HCV protease inhibitor), and the bottom row contained cells without compound. The plates were then placed in a CO2 incubator at 37° C.
Assays. Subsequent to addition of the test compounds described above (FRET Assay Preparation), at various times the plate was removed and Alamar blue solution (Trek Diagnostics, #00-100) was added per well as a measure of cellular toxicity. After reading in a Cytoflour 4000 instrument (PE Biosystems), plates were rinsed with PBS and then used for FRET assay by the addition of 30 ul of the FRET peptide assay reagent described above (FRET Assay Preparation) per well. The plate was then placed into the Cytoflour 4000 instrument which had been set to 340 excite/490 emission, automatic mode for 20 cycles and the plate read in a kinetic mode. Typically, the signal to noise using an endpoint analysis after the reads was at least three-fold. Alternatively, after Alamar blue reading, plates were rinsed with PBS, 50 ul of DMEM (high glucose) without phenol red was added and plates were then used for luciferase assay using the Promega Dual-Glo Luciferase Assay System.
Compound analysis was determined by quantification of the relative HCV replicon inhibition and the relative cytotoxicity values. To calculate cytoxicity values, the average Alamar Blue fluorescence signals from the control wells were set as 100% non-toxic. The individual signals in each of the compound test wells were then divided by the average control signal and multiplied by 100% to determine […]. To calculate the HCV replicon inhibition values, an average background value was obtained from the two wells containing the highest amount of HCV protease inhibitor at the end of the assay period. These numbers were similar to those obtained from naïve Huh-7 cells.
The background numbers were then subtracted from the average signal obtained from the control wells and this number was used as 100% activity. The individual signals in each of the compound test wells were then divided by the averaged control values after background subtraction and multiplied by 100% to determine percent activity. EC50 values for a protease inhibitor titration were calculated as the concentration which caused a 50% reduction in FRET or luciferase activity. The two numbers generated for the compound plate, percent cytoxicity and percent activity were used to determine compounds of interest for further analysis.

[1] = biological target: T1, HCV NS5B RdRp genotype 1b (Hepatitis C virus genotype 1b, UniProt Q9WMX2); experiment: Standard HCV NS5B RdRp enzyme assay; assay type: biochemical; settings: HCV NS5B RdRp genotype 1b, read-out: IC50
T1 construct: The protein was expressed with an 18 amino acid C-terminal truncation to enhance the solubility; made in house; host or cells: E. coli BL21(DE3), pET21a vector
T1 sequence (Q9WMX2 2420-2992): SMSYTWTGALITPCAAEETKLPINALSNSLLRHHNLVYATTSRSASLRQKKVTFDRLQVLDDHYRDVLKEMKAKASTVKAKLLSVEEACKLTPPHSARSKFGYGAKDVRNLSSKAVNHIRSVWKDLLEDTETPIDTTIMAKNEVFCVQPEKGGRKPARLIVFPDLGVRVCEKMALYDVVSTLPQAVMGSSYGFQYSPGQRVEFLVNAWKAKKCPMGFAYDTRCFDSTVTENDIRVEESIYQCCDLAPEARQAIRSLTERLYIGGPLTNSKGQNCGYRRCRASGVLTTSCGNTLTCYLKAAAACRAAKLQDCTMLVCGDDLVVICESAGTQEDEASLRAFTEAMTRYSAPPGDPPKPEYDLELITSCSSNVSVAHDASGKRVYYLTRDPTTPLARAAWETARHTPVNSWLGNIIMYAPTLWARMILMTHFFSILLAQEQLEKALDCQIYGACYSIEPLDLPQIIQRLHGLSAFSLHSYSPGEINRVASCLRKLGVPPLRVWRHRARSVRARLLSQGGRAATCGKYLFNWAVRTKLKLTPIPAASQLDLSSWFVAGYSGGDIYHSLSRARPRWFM
Method: HCV NS5B RdRp cloning, expression, and purification. The cDNA encoding the NS5B protein of HCV, genotype 1b, was cloned into the pET21a expression vector. The protein was expressed with an 18 amino acid C-terminal truncation to enhance the solubility. The E. coli competent cell line BL21(DE3) was used for expression of the protein. Cultures were grown at 37° C. for ˜4 hours until the cultures reached an optical density of 2.0 at 600 nm. The cultures were cooled to 20° C. and induced with 1 mM IPTG. Fresh ampicillin was added to a final concentration of 50 μg/ml and the cells were grown overnight at 20° C.
Cell pellets (3 L) were lysed for purification to yield 15-24 mgs of purified NS5B. The lysis buffer consisted of 20 mM Tris-HCl, pH 7.4, 500 mM NaCl, 0.5% triton X-100, 1 mM DTT, 1 mM EDTA, 20% glycerol, 0.5 mg/ml lysozyme, 10 mM MgCl2, 15 ug/ml deoxyribonuclease I, and Complete TM protease inhibitor tablets (Roche). After addition of the lysis buffer, frozen cell pellets were resuspended using a tissue homogenizer. To reduce the viscosity of the sample, aliquots of the lysate were sonicated on ice using a microtip attached to a Branson sonicator. The sonicated lysate was centrifuged at 100,000×g for 1 hr at 4° C. and filtered through a 0.2 μm filter unit (Corning).
The protein was purified using three sequential chromatography steps: Heparin sepharose CL-6B, polyU sepharose 4B, and Hitrap SP sepharose (Pharmacia). The chromatography buffers were identical to the lysis buffer but contained no lysozyme, deoxyribonuclease I, MgC12 or protease inhibitor and the NaCl concentration of the buffer was adjusted according to the requirements for charging the protein onto the column. Each column was eluted with a NaCl gradient which varied in length from 5-50 column volumes depending on the column type. After the final chromatography step, the resulting purity of the enzyme is >90% based on SDS-PAGE analysis. The enzyme was aliquoted and stored at −80° C.
Standard HCV NS5B RdRp enzyme assay. HCV RdRp genotype 1b assays were run in a final volume of 60 μl in 96 well plates (Costar 3912). The assay buffer composed of 20 mM Hepes, pH 7.5, 2.5 mM KCl, 2.5 mM MgCl2, 1 mM DTT, 1.6 U RNAse inhibitor (Promega N2515), 0.1 mg/ml BSA (Promega R3961), and 2% glycerol. All compounds were serially diluted (3-fold) in DMSO and diluted further in water such that the final concentration of DMSO in the assay was 2%. HCV RdRp genotype 1b enzyme was used at a final concentration of 28 nM. A polyA template was used at 6 nM, and a biotinylated oligo-dT12 primer was used at 180 nM final concentration. Template was obtained commercially (Amersham 27-4110). Biotinylated primer was prepared by Sigma Genosys. 3H-UTP was used at 0.6 μCi (0.29 μM total UTP). Reactions were initiated by the addition of enzyme, incubated at 30° C. for 60 min, and stopped by adding 25 μl of 50 mM EDTA containing SPA beads (4 μg/μl, Amersham RPNQ 0007). Plates were read on a Packard Top Count NXT after >1 hr incubation at room temperature.
IC50 values for compounds were determined using seven different [I]. IC50 values were calculated from the inhibition using the formula y=A+((B−A)/(1+((C/x)^D))).

Compound	pEC50 (HCV replicon cells; Table 1b)	pIC50 ([1]; Table 1b)	also measured
CNC(=O)c1c(-c2ccc(F)cc2)oc2ccc(-c3ccc(C(=O)NC4CC4)cc3)cc12			pEC50 (HCV replicon cells; Table 1a): < 5.91; pIC50 ([1]; Table 1a): < 5.00
CNC(=O)c1c(-c2ccc(F)cc2)oc2ccc(-c3cccc(-c4ccn[nH]4)c3)cc12	5.00 to 6.00	5.00 to 6.00	
CNC(=O)c1c(-c2ccc(F)cc2)oc2ccc(-c3cc(C(=O)NC4(c5nnc(-c6ccccc6Cl)[nH]5)CC4)ccc3C)cc12	> 6.60	> 6.60	
CNC(=O)c1c(-c2ccc(F)cc2)oc2ccc(-c3cc(Cl)cnc3F)cc12			pEC50 (HCV replicon cells; Table 1a): 5.00 to 6.00; pIC50 ([1]; Table 1a): < 5.00
CCCOc1cc(C)c(-c2ccc3oc(-c4ccc(F)cc4)c(C(=O)NC)c3c2)cc1C(=O)NC1(c2ccccn2)CC1			pEC50 (HCV replicon cells; 24 h, Table 1d (class symbols)): 6.60 to 9.00; pIC50 ([1]; Table 1d (class symbols)): 6.60 to 9.00
CNC(=O)c1c(-c2ccc(F)cc2)oc2ccc(-c3cccc(C(=O)NC(C)(C)c4cccnc4)c3)cc12	> 6.60	> 6.60	
CNC(=O)c1c(-c2ccc(F)cc2)oc2ccc(-c3cccc(C(=O)N(C)CCOC)c3)cc12			pEC50 (HCV replicon cells; Table 1a): 5.00 to 6.00; pIC50 ([1]; Table 1a): 5.00 to 6.00
CNC(=O)c1c(-c2ccc(F)cc2)oc2ccc(-c3cccc(C(=O)N4CC(C)OC(C)C4)c3)cc12 (stereo not drawn)			pEC50 (HCV replicon cells; Table 1a): 5.00 to 6.00; pIC50 ([1]; Table 1a): 5.00 to 6.00
CNC(=O)c1c(-c2ccc(F)cc2)oc2ccc(-c3cc(C(=O)NC4(c5ccccn5)CC4)c(OC)cc3OC)cc12	> 6.60	> 6.60	
CNC(=O)c1c(-c2ccc(F)cc2)oc2ccc(-c3cc(OCC#N)cc(C(=O)NCC(C)C)c3)cc12	> 6.60	> 6.60	
CNC(=O)c1c(-c2ccc(F)cc2)oc2ccc(-c3cc(C(=O)NC4(c5ccccn5)CC4)c(F)cc3C)cc12	> 6.60	> 6.60	
CNC(=O)c1c(-c2ccc(F)cc2)oc2ccc(-c3cccc(S(=O)(=O)NCCO)c3)cc12			pEC50 (HCV replicon cells; Table 1a): < 5.00; pIC50 ([1]; Table 1a): 5.00 to 6.00
CNC(=O)c1c(-c2ccc(F)cc2)oc2cc(N(CCO)S(C)(=O)=O)c(-c3cccc(C(=O)NC(C)(C)C(=O)Nc4cc(C)no4)c3)cc12	> 6.60	> 6.60	
CNC(=O)c1c(-c2ccc(F)cc2)oc2ccc(-c3cccc(C(=O)NS(=O)(=O)c4ccccc4)c3)cc12			pEC50 (HCV replicon cells; Table 1a): 5.00 to 6.00; pIC50 ([1]; Table 1a): > 6.60
CNC(=O)c1c(-c2ccc(F)cc2)oc2ccc(-c3ccc(O)c(C(=O)NCC(C)C)c3)cc12	< 5.00	5.00 to 6.00	
CNC(=O)c1c(-c2ccc(F)cc2)oc2ccc(-c3cc(C(=O)NC4(C(=O)OC)CC4)ccc3C)cc12	> 6.60	> 6.60	
CNC(=O)c1c(-c2ccc(F)cc2)oc2ccc(-c3ccc(Cl)c(C(=O)O)c3)cc12			pEC50 (HCV replicon cells; Table 1a): < 5.00; pIC50 ([1]; Table 1a): 5.00 to 6.00
CNC(=O)c1c(-c2ccc(F)cc2)oc2ccc(-c3cc(C(=O)NC4(c5ccccc5)CC4)ccc3OCCN)cc12	> 6.60	> 6.60	
CNC(=O)c1c(-c2ccc(F)cc2)oc2ccc(-c3cccc(C(=O)NC(C)(C)C(=O)Nc4cc(C)no4)c3)cc12	> 6.60	> 6.60	

Compound	pEC50 (HCV replicon cells; Table 1b)	pIC50 ([1]; Table 1b)	also measured
CNC(=O)c1c(-c2ccc(F)cc2)oc2ccc(-c3ccc(C(=O)NCCC(N)=O)cc3)cc12			pEC50 (HCV replicon cells; Table 1a): < 5.00; pIC50 ([1]; Table 1a): < 5.00
CNC(=O)c1c(-c2ccc(F)cc2)oc2ccc(-c3cc(C(=O)NC4(c5ccccc5)CC4)ccc3OCCN(C)C)cc12	> 6.60	> 6.60	
CNC(=O)c1c(-c2ccc(F)cc2)oc2ccc(-c3cccc(C(=O)Nc4c(O)ncnc4O)c3)cc12			pEC50 (HCV replicon cells; Table 1a): < 5.00; pIC50 ([1]; Table 1a): 6.00 to 6.60
CNC(=O)c1c(-c2ccc(F)cc2)oc2ccc(-c3ccc(-c4cccc(OC)c4F)c(C(=O)NCC(C)C)c3)cc12	6.00 to 6.60	< 5.00	
CNC(=O)c1c(-c2ccc(F)cc2)oc2ccc(-c3ccc(-c4ccsc4)c(C(=O)NCC(C)C)c3)cc12		> 6.60	
CNC(=O)c1c(-c2ccc(F)cc2)oc2ccc(-c3ccc(-c4ccnc(C)c4)c(C(=O)NCC(C)C)c3)cc12		> 6.60	
CNC(=O)c1c(-c2ccc(F)cc2)oc2ccc(-c3ccc(-c4cnc(N)nc4)c(C(=O)NCC(C)C)c3)cc12		> 6.60	
CNC(=O)c1c(-c2ccc(F)cc2)oc2ccc(-c3cc(C(=O)NC4(C(=O)O)CC4)c(O)cc3Cl)cc12		6.00 to 6.60	
CNC(=O)c1c(-c2ccc(F)cc2)oc2ccc(-c3ccc(-c4cncc(C)c4)c(C(=O)NCC(C)C)c3)cc12		6.00 to 6.60	
CNC(=O)c1c(-c2ccc(F)cc2)oc2ccc(-c3ccc(-c4cncc(OC)c4)c(C(=O)NCC(C)C)c3)cc12		6.00 to 6.60	
CNC(=O)c1c(-c2ccc(F)cc2)oc2ccc(-c3ccc(-c4c[nH]c(=O)[nH]c4=O)c(C(=O)NCC(C)C)c3)cc12		> 6.60	
CNC(=O)c1c(-c2ccc(F)cc2)oc2ccc(-c3cc(C(=O)NC4(C(=O)OC)CC4)c(O)cc3Cl)cc12		6.00 to 6.60	
CNC(=O)c1c(-c2ccc(F)cc2)oc2cc(N(CCO)S(C)(=O)=O)c(/C=C/C(=O)NC(C)(C)c3ccccc3)cc12		> 6.60	
CNC(=O)c1c(-c2ccc(F)cc2)oc2ccc(-c3cc(C(=O)NC4(c5cccc(C)n5)CC4)c(OC)cc3C)cc12			pIC50 ([1]; Table 1d (class symbols)): 6.60 to 9.00
CNC(=O)c1c(-c2ccc(F)cc2)oc2ccc(-c3ccc(-c4cccc(N)c4)c(C(=O)NCC(C)C)c3)cc12		> 6.60	
CNC(=O)c1c(-c2ccc(F)cc2)oc2ccc(-c3ccc(-c4cncnc4)c(C(=O)NCC(C)C)c3)cc12		> 6.60	
CNC(=O)c1c(-c2ccc(F)cc2)oc2cc(NS(C)(=O)=O)c(/C=C/C(=O)NC(C)(C)c3ccccc3)cc12		5.00 to 6.00	
CCOC(=O)c1[nH]c(-c2cccc(-c3ccc4oc(-c5ccc(F)cc5)c(C(=O)NC)c4c3)c2)nc1C		> 6.60	
